Consider 32 compounds from ChEMBL document CHEMBL4828750, “Structure-activity relationships of agonists for the orphan G protein-coupled receptor GPR27” (Eur J Med Chem, 2021).

For the first data set, the system named is HEK293. As to the kind of experiment: Cytotoxicity against human HEK293 cells expressing FnLArrb2.GPR27V2LFc up to 33.3 uM incubated for 10 mins by MTT assay. The format is cell-based. The note with it: hek293, 10 min. A general note: Tetrazolium assays rely on reduction of a dye to a coloured formazan, in cell work by metabolically active cells.
`O=C(Nc1ccc(S(=O)(=O)Nc2ccccc2)cc1)c1ccc(Cl)cc1Cl`: the Activity result was “Non-Toxic”.

`Cc1cc(Br)ccc1C(=O)Nc1ccc(S(=O)(=O)Nc2ccccc2)cc1`: the Activity result is reported as “Non-Toxic”. The same measure, in the same setting: in the case of `Cc1cc(Cl)ccc1C(=O)Nc1ccc(S(=O)(=O)Nc2ccccc2)cc1` it was “Non-Toxic”; in that of `O=C(Nc1ccc(S(=O)(=O)Nc2ccccc2)cc1)c1ccc(C(F)(F)F)cc1F`, “Non-Toxic”.

The next data set deals with T1, Probable G-protein coupled receptor 27 (Homo sapiens, UniProt Q9NS67). As to the kind of experiment: Agonist activity at human GPR27 expressed in HEK293 cells assessed as induction of beta-arrestin recruitment pretreated with substrate for 45 mins followed by compound addition and measured for 40 mins by NanoLuc luciferase complementation assay. It is filed as functional, cell-based.
T1 sequence (Q9NS67 whole entry): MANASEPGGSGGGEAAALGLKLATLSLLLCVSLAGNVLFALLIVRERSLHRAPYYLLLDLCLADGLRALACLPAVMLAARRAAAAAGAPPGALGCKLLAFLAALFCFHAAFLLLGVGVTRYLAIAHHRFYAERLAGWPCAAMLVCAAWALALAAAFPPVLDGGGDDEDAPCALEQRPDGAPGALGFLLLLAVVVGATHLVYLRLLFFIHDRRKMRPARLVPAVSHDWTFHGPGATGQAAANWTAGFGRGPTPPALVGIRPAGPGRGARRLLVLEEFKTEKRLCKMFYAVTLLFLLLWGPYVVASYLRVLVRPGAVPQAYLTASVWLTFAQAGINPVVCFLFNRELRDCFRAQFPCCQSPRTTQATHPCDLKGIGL
Conditions: not given
(Arrestin recruitment assays detect the binding of arrestin to an activated receptor.)
Broadly, the EC50 is the concentration that produces a half-maximal response. Regarding `O=C(Nc1ccc(S(=O)(=O)Nc2ccccc2)cc1)c1ccc(Cl)cc1Cl`, the EC50 came out at 0.912 µM.

Consider `O=C(Nc1ccc(S(=O)(=O)Nc2nccs2)cc1)c1ccc(Cl)cc1Cl`, for which the EC50 amounted to 1.3 µM.

Another data set deals with T1, Probable G-protein coupled receptor 27. The data set can be described thus: Agonist activity at human GPR27 expressed in HEK293 cells co-expressing FnLArrb2.GPR27V2LFc assessed as induction of beta-arrestin recruitment incubated for 10 mins measured followed by addition of D-luciferin by firefly-luciferase complementation assay. The format is functional, cell-based.
Conditions: not given
For the compound `O=C(Nc1ccc(S(=O)(=O)Nc2ccccn2)cc1)c1ccc(Cl)cc1Cl`, the EC50 was 3.02 µM.

Regarding `COc1ccc(NS(=O)(=O)c2ccc(NC(=O)c3ccc(Cl)cc3Cl)cc2)cc1`, the EC50 is above 100 µM. For `O=C(Cc1ccc(Cl)cc1Cl)Nc1ccc(S(=O)(=O)Nc2ccccc2)cc1`, the EC50 is above 100 µM.

Consider `O=C(Nc1ccc(S(=O)(=O)Nc2ccccc2Cl)cc1)c1ccc(Cl)cc1Cl`, for which the EC50 was 1.26 µM. The same measure, in the same setting: as for `O=C(Nc1ccc(S(=O)(=O)Nc2ccccc2)cc1)c1ccc(Br)cc1F`, the figure is 0.479 µM; as for `O=C(Nc1ccc(S(=O)(=O)Nc2ncccn2)cc1)c1ccc(Cl)cc1Cl`, above 100 µM. The same measure, in the same setting: as for `CN(c1ccccc1)S(=O)(=O)c1ccc(NC(=O)c2ccc(Cl)cc2Cl)cc1`, the figure is 2.57 µM. With `O=C(Nc1ccc(S(=O)(=O)Nc2ccccc2)cc1)c1ccc(Cl)cc1Cl`, the EC50 was 0.457 µM. In the case of `COc1cc(Br)ccc1C(=O)Nc1ccc(S(=O)(=O)Nc2ccccc2)cc1`, the EC50 is 1.02 µM. Consider `O=C(Nc1ccccc1)c1ccc(NC(=O)c2ccc(Cl)cc2Cl)cc1`, for which the EC50 is above 10 µM. Take `O=C(Nc1ccc(S(=O)(=O)NCc2ccccc2)cc1)c1ccc(Cl)cc1Cl`: the EC50 is above 100 µM. Still for that read-out and setting: as for `Cc1cc(Br)ccc1C(=O)Nc1ccc(S(=O)(=O)Nc2ccccc2)cc1`, the figure is 0.851 µM; as for `O=C(NS(=O)(=O)c1ccc(NC(=O)c2ccc(Cl)cc2Cl)cc1)c1ccccc1`, above 100 µM; as for `O=S(=O)(Nc1ccccc1)c1ccc(NS(=O)(=O)c2ccc(Cl)cc2Cl)cc1`, above 100 µM. On to `O=C(Nc1ccc(S(=O)(=O)Nc2ccccc2)cc1)c1ccc(I)cc1F`, for which the EC50 is 5.13 µM. On to `O=C(Nc1ccc(S(=O)(=O)Nc2ccc(Cl)cc2)cc1)c1ccc(Cl)cc1Cl`, for which the EC50 was above 100 µM.

For `N#Cc1ccc(C(=O)Nc2ccc(S(=O)(=O)Nc3ccccc3)cc2)c(F)c1`, the EC50 was 0.229 µM. `O=C(Nc1ccc(S(=O)(=O)Nc2ccccc2)cc1)c1ccc(Cl)cc1Br`: the EC50 is 1.02 µM. As for `Cc1ccccc1NS(=O)(=O)c1ccc(NC(=O)c2ccc(Cl)cc2Cl)cc1`, the EC50 was 1.23 µM. Still for that read-out and setting: in the case of `O=C(Nc1ccc(S(=O)(=O)Nc2ccccc2)cc1)c1ccc(Cl)nc1F` it was 2.29 µM; in that of `O=C(Nc1ccc(S(=O)(=O)Nc2ccccc2)cc1)c1ccc(Cl)cc1F`, 3.98 µM; in that of `O=C(Nc1ccc(Cl)cc1Cl)c1ccc(S(=O)(=O)Nc2ccccc2)cc1`, above 100 µM. Same read-out and setting: in the case of `O=C(Nc1ccc(S(=O)(=O)Nc2ccccc2)cc1)c1cc(F)c(Cl)cc1F` it was 0.141 µM. Turning to `O=C(Nc1ccc(S(=O)(=O)Nc2cccc(Cl)c2)cc1)c1ccc(Cl)cc1Cl`, the EC50 was 0.575 µM. Still for that read-out and setting: in the case of `O=C(Nc1ccc(S(=O)(=O)Nc2ccccc2)cc1)c1cc2ccccc2oc1=O` it was 7.76 µM; in that of `O=C(Nc1cccc(S(=O)(=O)Nc2ccccc2)c1)c1ccc(Cl)cc1Cl`, above 100 µM; in that of `O=C(Nc1ccc(S(=O)(=O)Nc2ccccc2)cc1)c1ncc(Cl)cc1Cl`, 5.75 µM. Turning to `Cc1cc(Cl)ccc1C(=O)Nc1ccc(S(=O)(=O)Nc2ccccc2)cc1`, the EC50 is 0.912 µM.

On to `Cc1ccc(NS(=O)(=O)c2ccc(NC(=O)c3ccc(Cl)cc3Cl)cc2)cc1`, for which the EC50 was above 100 µM. Regarding `O=C(Nc1ccc(S(=O)(=O)Nc2ccccc2)cc1)c1ccc2ccccc2c1`, the EC50 was 8.51 µM. On the same count and under the same terms, as for `O=C(Nc1ccc(S(=O)(=O)Nc2ccccc2)cc1)c1ccc(C(F)(F)F)cc1F`, the figure is 0.363 µM.
